Assay results reported in patent US20250195552A1, “METHODS OF USING AVERMECTIN COMPOSITIONS FOR THE TREATMENT OF INFLAMMATORY DISORDERS AND DOSING REGIMENS” (priority 2022, published 2025).
Entries after “also recorded” stand apart in the source; their conditions may differ. Where two headings read alike, the source gives them in different places.

Tests used:
focal seizures = settings: cited from earlier work
[1] = Pharmacokinetics of Ivermectin B1a in SD rat plasma after IV or oral administration
Method: Thirty-six male Sprague Dawley rats were randomly assigned into four groups, with nine male rats in each group. All animals in all groups are fasted overnight prior to the experimental date.
Blood samples were collected from 6 of 9 animals per group at 0.5, 1, 2, 3, 4, 6, 8, 24, 72, 120, 168 hours post-dose.

[2] = test system: Th17-skewed human CD4+ T cells; assay: Cytokine secretion in Th17-skewed CD4+ T cells (ELISA); assay type: cell-based
Method: The supernatants were analyzed for IL-17, TL-21 and IFN-γ by ELISA.

[3] = test system: STAT3 and IkBα phosphorylation in human CD4+ T cells; assay: Th17-induced STAT3 and IkBα phosphorylation (Western Blot); assay type: cell-based; settings: Th17-skewing conditions, 2 hours
Method: The cell lysates were prepared and analyzed by Western Blot. One representative of three different experiments is shown.

[4] = test system: human CD4+ T cells activated under Th17 skewing conditions; assay: FoxP3 expression (RT-PCR) and percentage of FoxP3+ T cells (Flow Cytometry); assay type: cell-based; settings: 1.5 mM of ivermectin, 5 days
Method: FoxP3, IL-17A and RORc mRNA expression levels were tested by RT-PCR (A). The percentage of FoxP3^+ T cells was determined by Flow Cytometry by using intra-cellular staining with PE-conjugated anti-Foxp3 antibody (B).

human PBMCs = assay: IL-17 and IFN-γ secretion in PBMCs stimulated by anti-CD3/CD28 in vitro; assay type: cell-based; settings: anti-CD3/CD28 stimulation, 48 hours, ELISA
Method: The supernatants were analyzed for IL-17 and IFN-γ by ELISA. One representative of three different experiments is shown.

LPS-induced human PBMCs = assay: LPS-induced secretion of TNF-α, IL-6 and IL-23 in PBMCs; assay type: cell-based; settings: PBMC, LPS activation for 2 days, ELISA
Method: The supernatants were analyzed for TNF-α, IL-6, and IL-23 by ELISA.

[5] = test system: TLR-induced human monocytes; assay: IL-1β secretion in TLR-induced monocytes; assay type: cell-based; settings: induced by LPS, Pam2CSK4 and Pam3CSK4 (100 ng/ml), 24 hours, ELISA
Method: The supernatants were analyzed for IL-1β by ELISA.

[6] = test system: Monocytes-derived dendritic cells (moDC); assay: TNF-α and IL-6 secretion in dendritic cells; assay type: cell-based, human; settings: moDC stimulated by Pam2CSK4 and Pam3CSK4, 24 hours, ELISA
Method: Monocytes-derived dendritic cells (moDC) were differentiated by culturing purified human monocytes with 25 ng/mL hGM-CSF and 50 ng/mL hTL-4 for 5-7 days to reach full differentiation. […] The supernatants were analyzed for IL-6 and TNF-α by ELISA. Bar graphs represent pooled data from 2-3 experiments.

PBMCs of human subjects = assay: Phase 1: IL-17 secretion in PBMCs stimulated ex vivo after oral administration; settings: oral 10-120 mg, significant at 80 and 120 mg SAD and at all MAD doses, anti-CD3/CD28 48 hrs
Method: The supernatants were analyzed for IL-17 by ELISA.

C57BL/6 mice = assay: Experimental autoimmune encephalomyelitis (EAE) model of MS; assay type: in vivo, mouse; settings: 1, 2, 4 mg/kg oral once daily, therapeutic from Day 14 to Day 34
Method: Vehicle was 1.6% DMSO in water. […] These were frozen at −20° C. Every 3 to 4 days, one aliquot was thawed and diluted with water to create a fine suspension at 0.8 mg/mL (for 4 mg/kg dosing). Final DMSO concentration was 1.6%. […] Per customer, all dosing formulations were stable for up to 4 days at 4° C. FTY720 stock solution (30 mg/mL in ethanol) was prepared for all ongoing studies. Daily, the FTY720 stock solution was diluted with water to the final dosing concentration of 0.6 mg/mL.
A balanced distribution of mice was confirmed by comparing mean day of onset, average score at EAE onset, average score on Day 14 and average weight on Day 13.
EAE was induced on Day 0 by myelin oligodendrocyte glycoprotein (MOG35-55)/complete Freund's adjuvant (CFA) immunization, followed by pertussis toxin (PTX) injections on Days O and 1. Treatment was therapeutic, starting on Day 14. […] Treatment continued through Day 34. Mice were observed through the end of the study, Day 35.
Clinical scores were assessed as follows: 1=limp tail, 2=partial hind leg paralysis, 3=complete hind leg paralysis, 4=complete hindleg and partial front leg paralysis; 5=moribund.

Sprague-Dawley rats = assay: Animal model of infantile spasms (NMDA-induced); assay type: in vivo, rat; settings: 2 and 4 mg/kg i.p. daily P10-P15; p<0.05
Description: A two-stage model of infantile spasms was developed (FIG. 23A). Pregnant Sprague-Dawley rats receive two injections of betamethasone on gestational (G) day 15. Offspring of those pregnancies are used for experiments during infancy, postnatal days (P) 10-15. Spasms are induced by i.p. injection of N-methyl-D-aspartic acid (NMDA), which is graded depending on the postnatal age of the subjects.
Days of dosing were P10, P11, P12, P13, P14 and P15.

[7] = Ivermectin solubility determination in excipients
Method: The solubility assessments were performed by continually adding a known amount of the API into each individual excipient and letting the excipient reach solubility equilibrium via API saturation (visible solid observed). The experiments were conducted at ambient conditions (25° C.) and were left to mix on a stir plate at 500 RPM for at least 72 hours.

[8] = single IV 2 mg/kg, fasting male SD rats, n = 6

COC[C@@H](NC(C)=O)C(=O)NCc1ccccc1 [VIMPAT, Lacosamide]
Placebo-adjusted >50% Focal Seizure Reduction (focal seizures; 400 mg): 17%
Placebo-adjusted Median Reduction in Focal Seizure Frequency (focal seizures; 400 mg): 15-29%

CC[C@@H](C(N)=O)N1CCCC1=O [KEPPRA, Leviteracetam]
Placebo-adjusted >50% Focal Seizure Reduction (focal seizures; 3000 mg): 29%
Placebo-adjusted Median Reduction in Focal Seizure Frequency (focal seizures; 3000 mg): 23-31%

NC(=O)O[C@@H](Cn1ncnn1)c1ccccc1Cl [XCOPRI, Cenobamate]
Placebo-adjusted >50% Focal Seizure Reduction (focal seizures; 400 mg): 39%
Placebo-adjusted Median Reduction in Focal Seizure Frequency (focal seizures; 4200 mg): 31%

NC(=O)N1c2ccccc2C[C@H](O)c2ccccc21 [APTIOM, Eslicarbazepine]
Placebo-adjusted >50% Focal Seizure Reduction (focal seizures; 1200 mg): 20%
Placebo-adjusted Median Reduction in Focal Seizure Frequency (focal seizures; 2000 mg): 14-24%

Cc1cc(N2CCc3cc(F)ccc3C2)cc(C)c1NC(=O)CC(C)(C)C [XEN1101]
Placebo-adjusted >50% Focal Seizure Reduction (focal seizures; 25 mg): 40%
Placebo-adjusted Median Reduction in Focal Seizure Frequency (focal seizures; 25 mg): 35%

CCC[C@@H]1CC(=O)N([C@@H](CC)C(N)=O)C1 [BRIVIACT, Brivaracetam]
Placebo-adjusted >50% Focal Seizure Reduction (focal seizures; 200 mg): 18%
Placebo-adjusted Median Reduction in Focal Seizure Frequency (focal seizures; 200 mg): 26%

CCC(C)C1OC2(CCC1C)CC1CC(CC=C(C)C(OC3CC(OC)C(OC4CC(OC)C(O)C(C)O4)C(C)O3)C(C)C=CC=C3COC4C(O)C(C)=CC(C(=O)O1)C34O)O2 (stereo not drawn) [Ivermectin]
AUC(0-t) [1, 8]: 8259.31 ng·h/mL
AUC(0-∞) [1, 8]: 8273.53 ng·h/mL
Cmax [1, 8]: 1722.67 ng/mL
MRT(0-t) [1, 8]: 10.58 h
MRT(0-∞) [1, 8]: 10.81 h
T1/2 [1, 8]: 14.82 h
T1/2 ([1]; single IV injection 2 mg/kg, male SD rats with fasting): 14.82 ± 0.72 h
EC50 ([2]; Th17-skewing conditions, additional experiment (FIG. 6B), read-out: EC, inhibition of CXCL13 secretion): 378 nM
EC50 ([2]; anti-CD3/CD28 + IL-1β + TGF-β (Th17-skewing), 48 hours, ELISA, read-out: EC50, inhibition of IFN-γ secretion): 541 nM
EC50 ([2]; anti-CD3/CD28 + IL-1β + TGF-β (Th17-skewing), 48 hours, ELISA, read-out: EC50, inhibition of IL-17 secretion): 450 nM
EC50 ([2]; anti-CD3/CD28 + IL-1β + TGF-β (Th17-skewing), 48 hours, ELISA, read-out: EC50, inhibition of IL-21 secretion): 364 nM
STAT3 phosphorylation [3]: dose-dependent reduction
inhibitor molecule protein (IkB)α phosphorylation [3]: dose-dependent reduction
increase in the percentage of Foxp3+ T cells ([4]; Flow Cytometry): 50%
FoxP3 mRNA levels ([4]; RT-PCR): up-regulation
IL-17A mRNA expression ([4]; RT-PCR): decreased
RORc mRNA expression ([4]; RT-PCR): decreased
EC50 (human PBMCs; read-out: EC50, decrease of IFN-γ): 987 nM
EC50 (human PBMCs; read-out: EC50, decrease of IL-17): 416 nM
EC50 (LPS-induced human PBMCs; read-out: EC50, decrease of IL-6): 1300 nM
EC50 (LPS-induced human PBMCs; read-out: EC50, decrease of IL-23): 470 nM
EC50 (LPS-induced human PBMCs; read-out: EC50, decrease of TNF-α): 1400 nM
IL-1β secretion [5]: significantly down-regulates; also recorded: reduced IL-1β in a dose-dependent manner
IL-6 secretion [6]: significantly and in a dose-dependent manner down-regulates; also recorded: dose dependent decrease
TNF-α secretion [6]: significantly and in a dose-dependent manner down-regulates; also recorded: dose dependent decrease
ability of T cells to secrete IL-17 in response to TCR stimulation ex vivo (PBMCs of human subjects): down-regulates
limb paralysis (clinical score) in EAE model of MS (C57BL/6 mice): significantly downregulates limb paralysis
occurrence (number) of spasms triggered on P15 vs vehicle controls (Sprague-Dawley rats): significantly suppressed occurrence of spasms; also recorded: significantly fewer spasms
Solubility ([7]; in Capryol 90, 25° C.): 150.92 mg/g
Solubility ([7]; in Fractionated Coconut oil, 25° C.): 16.55 mg/g
Solubility ([7]; in Glycerin, 25° C.): <0.1 mg/g
Solubility ([7]; in Kolliphor EL, 25° C.): 95.85 mg/g
Solubility ([7]; in Labrafil M 2125 CS, 25° C.): 35.32 mg/g
Solubility ([7]; in Labrasol ALF, 25° C.): 126.36 mg/g
Solubility ([7]; in LauroglycolTM FCC, 25° C.): 71.96 mg/g
Solubility ([7]; in Maisine CC, 25° C.): 60.17 mg/g
Solubility ([7]; in Masester E8120, 25° C.): 164.06 mg/g
Solubility ([7]; in Medium Chain Triglyceride, 25° C.): 16.49 mg/g
Solubility ([7]; in Oleic acid, 25° C.): 48.58 mg/g
Solubility ([7]; in Olive oil, 25° C.): 4.71 mg/g
Solubility ([7]; in PEG 400, 25° C.): 112.92 mg/g
Solubility ([7]; in Propylene glycol, 25° C.): 25.61 mg/g
Solubility ([7]; in Soybean oil, 25° C.): 6.72 mg/g
Solubility ([7]; in Span 20, 25° C.): 97.66 mg/g
Solubility ([7]; in Span 80, 25° C.): 54.04 mg/g
Solubility ([7]; in Triacetin, 25° C.): 58.75 mg/g
Solubility ([7]; in Tween 80, 25° C.): 88.26 mg/g
Solubility ([7]; in Vitamin E TPGS, table title 25° C., text: conducted at 40° C.): 82.98 mg/g
